According to ChEMBL document CHEMBL5728714, “Aryl heterocyclic piperidinone formyl peptide 2 receptor and formyl peptide 1 receptor agonists” (2021):

Biological target: T1, N-formyl peptide receptor 2 (Homo sapiens, UniProt P25090)
T1 sequence (P25090 whole entry): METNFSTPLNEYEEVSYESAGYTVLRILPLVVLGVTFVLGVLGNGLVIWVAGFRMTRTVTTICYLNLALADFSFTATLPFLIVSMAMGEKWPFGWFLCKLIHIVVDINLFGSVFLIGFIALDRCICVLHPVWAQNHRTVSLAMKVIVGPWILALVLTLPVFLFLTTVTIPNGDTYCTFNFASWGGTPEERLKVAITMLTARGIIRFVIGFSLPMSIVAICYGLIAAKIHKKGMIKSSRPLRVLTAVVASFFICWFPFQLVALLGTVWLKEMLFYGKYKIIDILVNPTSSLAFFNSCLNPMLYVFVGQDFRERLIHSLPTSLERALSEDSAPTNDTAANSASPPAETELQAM
Experiment: FPR2 and FPR1 Cyclic Adenosine Monophosphate (cAMP) Assays: A mixture of forskolin (5 μM final for FPR2 or 10 μM final for FPR1) and IBMX (200 μM final) were added to 384-well Proxiplates (Perkin-Elmer) pre-dotted with test compounds in DMSO (1% final) at final concentrations in the range of 1.7 nM to 100 μM. Chinese Hamster Ovary cells (CHO) overexpressing human FPR1 or human FPR2 receptors were cultured in F-12 (Ham's) medium supplemented with 10% qualified FBS, 250 μg/ml zeocin and 300 μg/ml hygromycin (Life Technologies). Reactions were initiated by adding 2,000 human FPR2 cells per well or 4,000 human FPR1 cells per well in Dulbecco's PBS (with calcium and magnesium) (Life Technologies) supplemented with 0.1% BSA (Perkin-Elmer). The reaction mixtures were incubated for 30 min at room temperature. The level of intracellular cAMP was determined using the HTRF HiRange cAMP assay reagent kit (Cisbio) according to manufacturer's instruction. Solutions of cryptate conjugated anti-cAMP and d2 flurorophore-labelled cAMP were made in a supplied lysis buffer separately. Upon completion of the reaction, the cells were lysed with equal volume of the d2-cAMP solution and anti-cAMP solution. After a 1-h room temperature incubation, time-resolved fluorescence intensity was measured using the Envision (Perkin-Elmer) at 400 nm excitation and dual emission at 590 nm and 665 nm. […]
Format: cell-based

| SMILES | EC50 |
| --- | --- |
| O=C(Nc1cnc(Cl)cn1)N[C@@H]1CCCN(c2ccc(C3(CN4CCOCC4)CC3)cc2)C1=O | < 10 nM |
| O=C(Nc1ccc(C(F)(F)F)cc1)N[C@@H]1CCCN(c2ccc(C3CCOCC3)cc2)C1=O | < 10 nM |
